Key:
[1] = Solubility in nematic LC mixture LCT-06-441 (crystallisation on cooling); assay type: physicochemical; details: 5% by weight in LCT-06-441, stirred at 50° C. for ½ hour, then cooled to room temperature without stirring
Experimental: The solubility of compound (1) is compared with the solubility of the structurally analogous compound (A) known from the prior art (for example EP 1 498 468 A1), in which the polymerisable groups are linked in the para-position to the mesogenic group:
To this end, each compound is dissolved in the commercially available nematic LC mixture LCT-06-441 (Merck KGaA, Darmstadt) in a concentration of 5% by weight with stirring at 50° C. (½ hour) and then cooled to room temperature without stirring.

Compound | melting point | Solubility (crystallisation behaviour) [1]
C=C(C)C(=O)OCCCCc1cc(-c2ccc(OC(=O)C(=C)C)cc2)ccc1OC(=O)C(=C)C [(9), 4′-(2-Methylacryloyloxy)-3-[4-(2-methylacryloyloxy)butyl]biphenyl-4-yl 2-methylacrylate] | 76 °C | 
C=C(C)C(=O)Oc1ccc(-c2ccc(OC(=O)C(=C)C)cc2)cc1 [(A), reference compound] |  | Immediately crystallises out on cooling to RT

Continued, in another order:

melting point | Compound | Solubility (crystallisation behaviour) [1]
70 °C | C=C(C)C(=O)Oc1cccc(-c2cccc(OC(=O)C(=C)C)c2)c1 [(1), 3′-(2-Methylacryloyloxy)biphenyl-3-yl 2-methylacrylate] | Crystallises out overnight at RT
48 °C | C=CC(=O)Oc1cccc(-c2cccc(OC(=O)C=C)c2)c1 [(2), 3′-Acryloyloxybiphenyl-3-yl acrylate] | 
49 °C | C=C(C)C(=O)OCCCOc1cccc(-c2cccc(OC(=O)C(=C)C)c2)c1 [(3), 3′-[3-(2-Methylacryloyloxy)propoxy]biphenyl-3-yl 2-methylacrylate] | 

— patent US8313669B2, “Liquid-crystal display” (Merck Patent Gesellschaft mit Beschränkter Haftung, priority 2007, dated 2012)
